Key:
Assay in all cases: In vitro antifungal activity, microbroth dilution MIC
Assay type in all cases: cell-based
Details in all cases: RPMI-1640, 35° C., 4 to 48 hours, no growth observed
[1] = tested on: Cryptococcus neoformans B. 42419
Procedure, shortened: (§1)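 Broth microdilution adapted from NCCLS M27, in RPMI-1640 with 0.165 M MOPS, pH 7.0. Yeast or mould inoculum at 2×10^3 CFU/ml was mixed 1:1 with DMSO-derived compound solutions (200 to 0.10 μg/ml before mixing) and incubated at 35 °C for 4 to 48 h. MIC was the concentration showing no growth.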

[2] = tested on: Candida parapsitosis A. 7330
Procedure, shortened: as §1

[3] = tested on: Aspergillus niger A. 16404
Procedure, shortened: as §1

Candida albicans C1-2 = tested on: Candida albicans C1-2
Procedure, shortened: as §1

[4] = tested on: Cryptococcus neoformans A. 34144
Procedure, shortened: as §1

[5] = tested on: Torulopsis glabrata B. 16205
Procedure, shortened: as §1

[6] = tested on: Trichophyton mentagrophytes B. 32663
Procedure, shortened: as §1

Candida krusei K. 11655 = tested on: Candida krusei K. 11655
Procedure, shortened: as §1

[7] = tested on: Trichophyton mentagrophytes A. 9129
Procedure, shortened: as §1

[8] = tested on: Candida albicans A. 10231
Procedure, shortened: as §1

[9] = tested on: Cryptococcus neoformans IFM. 40092
Procedure, shortened: as §1

[10] = tested on: Candida pseudotropicalis K. 11658
Procedure, shortened: as §1

[11] = tested on: Aspergillus furnigatus B. 19119
Procedure, shortened: as §1

[12] = tested on: Candida albicans IFO. 1385
Procedure, shortened: as §1

[13] = tested on: Candida tropicalis A. 13803
Procedure, shortened: as §1

| SMILES | Minimal inhibitory concentration(MIC), Cry. neoformans B. 42419 [1] | Minimal inhibitory concentration(MIC), C. parapsitosis A. 7330 [2] | Minimal inhibitory concentration(MIC), A. niger A. 16404 [3] | Minimal inhibitory concentration(MIC), C. albicans C1-2 (Candida albicans C1-2) | Minimal inhibitory concentration(MIC), Cry. neoformans A. 34144 [4] | Minimal inhibitory concentration(MIC), T. glabrata B. 16205 [5] | Minimal inhibitory concentration(MIC), T. mentagrophytes B. 32663 [6] | Minimal inhibitory concentration(MIC), C. krusei K. 11655 (Candida krusei K. 11655) | Minimal inhibitory concentration(MIC), T. mentagrophytes A. 9129 [7] | Minimal inhibitory concentration(MIC), C. albicans A. 10231 [8] | Minimal inhibitory concentration(MIC), Cry. neoformans IFM. 40092 [9] | Minimal inhibitory concentration(MIC), C. pseudotropicalis K. 11658 [10] | Minimal inhibitory concentration(MIC), A furnigatus B. 19119 [11] | Minimal inhibitory concentration(MIC), C. albicans IFO. 1385 [12] | Minimal inhibitory concentration(MIC), C. tropicalis A. 13803 [13] |
| --- | --- | --- | --- | --- | --- | --- | --- | --- | --- | --- | --- | --- | --- | --- | --- |
| CCc1ccc(C(=C(F)N2CCN(c3ccc(OCC4COC(Cn5ccnc5)(c5ccc(Cl)cc5Cl)O4)cc3)CC2)C(F)(F)F)cc1 (mixture of isomers) [Ex. 127] | 0.78 µg/mL | 3.13 µg/mL | >100 µg/mL | >100 µg/mL | 0.78 µg/mL | >100 µg/mL | 3.13 µg/mL | 3.13 µg/mL | 12.5 µg/mL | >100 µg/mL | 0.39 µg/mL | 1.56 µg/mL | >100 µg/mL | 3.13 µg/mL | >100 µg/mL |
| CC(C)(C)c1ccc(C(=C(F)N2CCN(c3ccc(OCC4COC(Cn5ccnc5)(c5ccc(Cl)cc5Cl)O4)cc3)CC2)C(F)(F)F)cc1 (mixture of isomers) [Ex. 128] | 0.78 µg/mL | 3.13 µg/mL | >100 µg/mL | >100 µg/mL | 0.78 µg/mL | >100 µg/mL | 6.25 µg/mL | 3.13 µg/mL | 12.5 µg/mL | >100 µg/mL | ≦0.10 μg/ml | 1.56 µg/mL | >100 µg/mL | 1.56 µg/mL | >100 µg/mL |
| Cc1ccc(C(=C(F)N2CCN(c3ccc(OCC4COC(Cn5ccnc5)(c5ccc(Cl)cc5Cl)O4)cc3)CC2)C(F)(F)F)cc1C (mixture of isomers) [Ex. 129] | 0.78 µg/mL | 3.13 µg/mL | >100 µg/mL | >100 µg/mL | 0.78 µg/mL | >100 µg/mL | 3.13 µg/mL | 3.13 µg/mL | 12.5 µg/mL | >100 µg/mL | 0.39 µg/mL | 1.56 µg/mL | >100 µg/mL | 3.13 µg/mL | >100 µg/mL |
| FC(=C(c1ccc(C(F)(F)F)cc1)C(F)(F)F)N1CCN(c2ccc(OCC3COC(Cn4ccnc4)(c4ccc(Cl)cc4Cl)O3)cc2)CC1 (mixture of isomers) [Ex. 130] | 0.78 µg/mL | 1.56 µg/mL | >100 µg/mL | >100 µg/mL | 0.78 µg/mL | >100 µg/mL | 12.5 µg/mL | 1.56 µg/mL | 25.0 µg/mL | >100 µg/mL | 0.20 µg/mL | 1.56 µg/mL | >100 µg/mL | 3.13 µg/mL | >100 µg/mL |
| COc1ccc(C(=C(F)N2CCN(c3ccc(OCC4COC(Cn5ccnc5)(c5ccc(Cl)cc5Cl)O4)cc3)CC2)C(F)(F)F)cc1 (mixture of isomers) [Ex. 131] | 0.78 µg/mL | 3.13 µg/mL | >100 µg/mL | >100 µg/mL | 0.39 µg/mL | >100 µg/mL | 1.56 µg/mL | 1.56 µg/mL | 6.25 µg/mL | >100 µg/mL | 0.20 µg/mL | 1.56 µg/mL | >100 µg/mL | 1.56 µg/mL | >100 µg/mL |
| FC(=C(c1ccc2c(c1)OCO2)C(F)(F)F)N1CCN(c2ccc(OCC3COC(Cn4ccnc4)(c4ccc(Cl)cc4Cl)O3)cc2)CC1 (mixture of isomers) [Ex. 132] | 0.78 µg/mL | 1.56 µg/mL | >100 µg/mL | >100 µg/mL | 0.78 µg/mL | >100 µg/mL | 1.56 µg/mL | 1.56 µg/mL | 6.25 µg/mL | >100 µg/mL | 0.20 µg/mL | 1.56 µg/mL | >100 µg/mL | 1.56 µg/mL | >100 µg/mL |
| FC(=C(c1cccc(Cl)c1)C(F)(F)F)N1CCN(c2ccc(OCC3COC(Cn4ccnc4)(c4ccc(Cl)cc4Cl)O3)cc2)CC1 (mixture of isomers) [Ex. 133] | 0.39 µg/mL | 3.13 µg/mL | >100 µg/mL | >100 µg/mL | 0.78 µg/mL | >100 µg/mL | 1.56 µg/mL | 1.56 µg/mL | 6.25 µg/mL | >100 µg/mL | 0.20 µg/mL | 1.56 µg/mL | >100 µg/mL | 3.13 µg/mL | >100 µg/mL |
| FC(=C(c1ccc(Cl)cc1)C(F)(F)F)N1CCN(c2ccc(OCC3COC(Cn4ccnc4)(c4ccc(Cl)cc4Cl)O3)cc2)CC1 (mixture of isomers) [Ex. 134] | 0.78 µg/mL | 3.13 µg/mL | >100 µg/mL | >100 µg/mL | 0.39 µg/mL | >100 µg/mL | 1.56 µg/mL | 1.56 µg/mL | 6.25 µg/mL | >100 µg/mL | 0.20 µg/mL | 1.56 µg/mL | >100 µg/mL | 1.56 µg/mL | >100 µg/mL |
